Measurements from US10335382B2, “Use of hydrogen sulfide synthesis inhibitors for cancer therapy” (THE BOARD OF REGENTS OF THE UNIVERSITY OF TEXAS SYSTEM, priority 2013, dated 2019).
Like-named read-outs stand apart in the source and are kept apart here.

How the values were obtained:
[1] = tested on: HCT116 colon cancer cell; assay: HCT116 colon cancer cell proliferation (xCELLigence); assay type: cell-based, human; details: Homo sapiens, HCT-116
Procedure: Cellular proliferation assays are conducted in HCT116 CRC cells in vitro, using the Roche XCelligence method. Concentration-response curves with the various AOAA analogs are prepared (concentration range: 1, 3, 10, 100, 300 and 600 μM). AOAA is used as the reference control, which, according to preliminary data, has an IC50 of approximately 300 μM. Control proliferation studies in the non-carcinogenic colonic epithelial cell line NCM356 are used to confirm cancer-cell selectivity. Since the NCM356 cells contain low levels of CBS, based on previous studies it is expect that AOAA (and its prodrugs) will only exert modest antiproliferative effects in these cells. Proliferation-inhibitory effects of the AOAA prodrugs in NCM356 cells indicate CBS-independent pharmacological actions. A collection of human colorectal tumor tissue samples (and surrounding non-cancerous tissue) are used to test the conversion of the AOAA prodrugs to AOAA in a number of cancer samples.
(§1) Cellular migration and invasion assays were performed as described (Chao et al. (1996) Cancer Res. 56:4811-19). Briefly, 10^5 cells were suspended in serum-free media containing 0.1% BSA and then added to 6.5 mm Transwell chambers ([…]) uncoated (migration assay) or coated with a thin layer (45 μl) of growth factor reduced matrigel (cell invasion assay). Cells were allowed to migrate toward the bottom chamber containing fibroblast (NIH-3T3 cells) conditioned media at 37° C. for 6 or 24 h for cell migration and invasion, respectively. Migrated and invaded cells were then fixed in Carson's fixative, stained in 0.33% toluidine blue and quantified by visual counting. For the HCT116-EAhy926 co-culture experiment, the cancer cell line was grown to confluence in the bottom wells of the transwell chambers and then endothelial cell migration was assessed (Coletta et al. (2012) Proc Natl Acad Sci USA. 109:9161-66). For assessment of colon cell proliferation, the xCELLigence system (Roche) was used (Szabo and Papapetropoulos (2011) Br J Pharmacol. 164:853-65).
For assessment of cell proliferation, the xCELLigence system (Roche) was used. Briefly, HCT116 cells were cultured until approximately 70% confluence. Cells were then detached by Trypsin-EDTA and resuspended in fresh culture media at a concentration of 30,000 cells/ml. 200 μl of cell suspension was added to each well (6,000 cells/well) of a E-plate 96, a specially designed 96-well microtiter plate containing interdigitated microelectrodes to non-invasively monitor the cell proliferation by measuring the relative change in the electrical impedance of the cell monolayer, a unitless parameter named cell index (CI). Cells were then treated with YD02-51 and proliferation was monitored for 48 hours.

[2] = tested on: HCT116 cells; assay: HCT116 cell migration and invasion (Transwell); assay type: cell-based, human; details: AOAA 1 mM, fibroblast-conditioned media
Procedure: FIG. 3. […] (A, B) The lentiviral shRNA vectors targeting CBS (shCBS) and CSE (shCSE) were transfected into HCT116 cells. A non-targeting sequence was used as control (shNT). […] Following CBS and CSE silencing, cells were seeded at the density of 3000 cells/well in xCELLigence plates and proliferation was monitored for 36 hours. […] The NCM356 cells were infected overnight with a CBS expressing adenovirus (Ad-CBS, 10 multiplicity of infection (MOI)) or its control, a green fluorescent protein (Ad-GFP). The culture media was then replaced and cells were seeded in XCelligence plates at 3000 cells/well. Cell proliferation was then measured real-time over 36 hours. […] (H, I) The effect of AOAA and NaHS was also tested on HCT116 cell migration (H) and invasion (I). Cells were pretreated either with vehicle or AOAA (1 mM) and seeded in serum-free DMEM (0.1% albumin) in the upper chamber of a trans-well insert uncoated (migration assay) or coated with growth factor reduced matrigel (invasion assay). Migration and invasion were stimulated by fibroblast-conditioned media in the lower chamber for 6 and 24 hours, respectively. […] (J) In a co-culture of human endothelial cells (EAhy926) and colon cancer cells (HCT116), HCT 116 cells were seeded in the lower chamber of a trans-well insert and cultured to confluence. Endothelial cells were then seeded into the upper chamber in serum-free DMEM and allowed to migrate for 4 hours at 37° C. […] Western blots are representative of at least three independent experiments; proliferation/migration/invasion assays and H2S measurements represent mean±SEM of n=3 determinations.
as §1, with “109:9161-66).” for “109:9161-66). For assessment of colon cell proliferation, the xCELLigence system (Roche) was used (Szabo and Papapetropoulos (2011) Br J Pharmacol. 164:853-65).”

[3] = biological target: T1, CBS (Homo sapiens, UniProt P35520); parameters: These studies used full-length human CBS enzyme; made in house; host or cells: E. coli BL21 (DE3) Codon Plus; details: cited from earlier work
T1 sequence (P35520 1-551): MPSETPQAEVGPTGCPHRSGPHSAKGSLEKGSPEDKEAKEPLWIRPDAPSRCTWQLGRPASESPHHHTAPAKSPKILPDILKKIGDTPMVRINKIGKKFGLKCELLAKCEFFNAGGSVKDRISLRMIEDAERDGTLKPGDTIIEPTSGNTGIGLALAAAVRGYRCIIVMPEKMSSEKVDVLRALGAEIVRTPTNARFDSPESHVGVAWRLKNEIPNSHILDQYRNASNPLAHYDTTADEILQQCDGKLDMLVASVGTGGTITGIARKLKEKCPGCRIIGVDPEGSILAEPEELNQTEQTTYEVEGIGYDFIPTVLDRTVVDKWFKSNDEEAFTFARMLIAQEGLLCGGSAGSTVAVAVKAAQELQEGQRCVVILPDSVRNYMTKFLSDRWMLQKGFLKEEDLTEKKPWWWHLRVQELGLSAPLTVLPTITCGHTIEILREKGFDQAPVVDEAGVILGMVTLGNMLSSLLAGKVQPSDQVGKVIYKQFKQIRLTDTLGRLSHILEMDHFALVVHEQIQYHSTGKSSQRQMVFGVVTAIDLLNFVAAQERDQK

NOCC(=O)O [AOAA, aminooxyacetic acid]
inhibition at 300 µM ([1]; 300 μM, HCT116): 21% | IC50 ([1]; read-out: IC50 (μM), inhibition of HCT116 colon cancer cell proliferation): 1780 µM | IC50 ([1]; reference control, preliminary data, XCelligence, read-out: IC50, HCT116 proliferation (preliminary data)): ~300 µM | HCT116 cell migration ([2]; 6 hours): markedly reduced | HCT116 cell invasion ([2]; matrigel, 24 hours): markedly reduced | concentrations exerting inhibitory effects on human recombinant CBS [3]: low micromolar concentrations
